Results: US4717713A, “Controlled release liquid pharmaceutical” (Research Corporation, priority 1983, dated 1988)

Assay: In vitro dissolution of theophylline from solutions/suspensions (U.S.P. paddle, simulated gastric fluid, 37° C.)
Assay type: physicochemical
Details: Table II; 50 R.P.M.; no polymers present
Method: Standard U.S.P. Teflon coated stainless steel paddles and round bottom glass beakers were employed. The desired stirrer speed was maintained by commercial feedback control circuitry (50 RPM is illustrated by way of example). The dissolution medium was 1000 ml of Simulated Gastric Fluid U.S.P. without enzyme in most cases, kept at 37° C. by a water bath with a heat/circulator unit.
Suspension was placed into the filled beaker near the surface by 0.27 cm inner radius glass tube attached by plastic tubing to a three ml disposable syringe. Two ml of suspension was pulled up into the tube, the exterior wiped clean, one ml was extruded into the dissolution medium beneath the surface, and the suspension separated from the glass tube by cutting with a razor blade. The technique produced uniform cylindrical matrices in most cases.
In all cases, the total amount of drug released into the dissolution medium was less than ten percent of that needed to saturate the medium, so that sink conditions were maintained.
A precise volume was withdrawn near the top of the dissolution medium for each sample. The volume ranged from 0.1 ml to 3.0 ml. […]
Standard curves were concentrated for theophylline in simulated gastric fluid USP. Samples were diluted to read within the linear concentration range and absorbance was read at 272 nm using a single beam spectrophotometer.

Cn1c(=O)c2[nH]cnc2n(C)c1=O [Theophylline Powder, theophylline]
T 50% (time for 50% theophylline to dissolve): < 5 min
